Tested on: Ltk− cells
Assay: Efficiency of introduction into cells with the aid of Ca2+ indicator
Assay type: cell-based, mouse
Conditions: intracellular calcium elevated by calcium ionophore
Description: To the nanospheres (red fluorescent), calcium green-1 acetoxymethyl derivative was added as a fluorescent Ca^2+ indicator to give a concentration of 20 mM and mixed at room temperature for 1 hour so that it was adsorbed on the nanospheres. The unadsorbed calcium green-1 was removed by dialysis (Spectra/Por Membranes MWCO:12-14000) and buffer replacement was performed to prepare liposomes and fusogenic liposomes. 2×10^5 Ltk^−cells that had been seeded on 6-well plates one day before were washed with PBS(−) and exposed for 1 minute to the action of the calcium green-1 acetoxymethyl derivative, calcium green-1 adsorbed nanospheres, liposomes or fusogenic liposomes which were all conditioned to have the same fluorescence intensity of 2700 (Ex. 488 nm; Em, 534 nm). Thereafter, the cells were washed with PBS(−), cultured in an Eagle's MEM medium for 1 hour, stripped from the medium with trypsin and subjected to the measurement of fluorescence intensity (Ex, 488 nm; Em, 534 nm). Thereafter, a calcium ionophore/DMSO solution was added to give a concentration of 0.1 mg/mL and fluorescence intensity was measured at Ex=488 nm and Em=534 nm.

calcium green-1 acetoxymethyl derivative
fluorescence of calcium green-1 in cells: barely detectable

Reference: US6875448B1, “Method of intracellular sustained-release of drug and preparations” (Chugai Seiyaku Kabushiki Kaisha, priority 1999, dated 2005)
